Measurements taken from ChEMBL document CHEMBL1134132, “Development of potent and selective factor Xa inhibitors” (Bioorg Med Chem Lett, 2001).

Molecular target: Coagulation factor X (Homo sapiens, UniProt P00742)
Assay: Inhibitory activity against Coagulation factor X in human plasma
Assay type: cell-free

Chain of Coagulation factor X (P00742 41-179 limits assumed): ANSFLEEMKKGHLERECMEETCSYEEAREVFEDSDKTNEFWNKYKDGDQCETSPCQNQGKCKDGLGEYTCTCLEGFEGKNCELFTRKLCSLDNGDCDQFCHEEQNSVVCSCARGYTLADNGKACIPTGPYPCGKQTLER
Chain of Coagulation factor X (P00742 235-488 limits assumed): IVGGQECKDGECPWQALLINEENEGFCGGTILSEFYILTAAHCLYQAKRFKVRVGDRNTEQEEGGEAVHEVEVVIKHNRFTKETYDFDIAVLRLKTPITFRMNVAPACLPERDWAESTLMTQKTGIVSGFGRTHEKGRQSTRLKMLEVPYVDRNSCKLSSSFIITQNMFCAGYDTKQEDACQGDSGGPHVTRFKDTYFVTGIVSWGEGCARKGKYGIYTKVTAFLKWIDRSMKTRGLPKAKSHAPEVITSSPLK

| SMILES | Ki [nM] |
| --- | --- |
| O=C(O)CCc1cc(Br)c(O)c(-c2[nH]c3ccccc3c2Cc2ccccc2)c1 | 300000 |
| Cc1cc(Br)c(O)c(-c2[nH]c3ccc(C(=N)N)cc3c2CCCc2ccccc2)c1 | 7600 |
| N=C(N)c1ccc2[nH]c(-c3cc(C(=O)O)cc(Br)c3O)c(Cc3ccccc3)c2c1 | 4 |
| N=C(N)c1ccc2[nH]c(-c3cc(Br)cc(CCC(=O)O)c3)c(Cc3ccccc3)c2c1 | 1000 |
| N=C(N)c1ccc2[nH]c(-c3cc(Cc4nn[nH]n4)cc(Br)c3O)c(Cc3ccccc3)c2c1 | 20 |
| N=C(N)c1ccc2[nH]c(-c3cc(CCCC(=O)O)cc(Br)c3O)c(Cc3ccccc3)c2c1 | 0.7 |
| COc1c(Br)cc(CCC(=O)O)cc1-c1[nH]c2ccc(C(=N)N)cc2c1Cc1ccccc1 | 45 |
| N=C(N)c1ccc2[nH]c(-c3cc(CC(=O)O)cc(Br)c3O)c(Cc3ccccc3)c2c1 | 3 |
| Cc1cc(-c2ccccc2)c(O)c(-c2cc3cc(C(=N)N)ccc3[nH]2)c1 | 640 |
| N=C(N)c1ccc2[nH]c(-c3cc(CC(N)=O)cc(Br)c3O)c(Cc3ccccc3)c2c1 | 2 |
| N=C(N)c1ccc2[nH]c(-c3cc(-c4nn[nH]n4)cc(Br)c3O)c(Cc3ccccc3)c2c1 | 10 |
| Cc1cc(C)c(O)c(-c2cc3cc(C(=N)N)ccc3[nH]2)c1 | 1200 |

More lines, now with the values ahead:

| Ki [nM] | SMILES |
| --- | --- |
| 10 | CC(C)(C(=O)O)c1cc(Br)c(O)c(-c2[nH]c3ccc(C(=N)N)cc3c2Cc2ccccc2)c1 |
| 350 | Cc1cc(Br)c(O)c(-c2[nH]c3ccc(C(=N)N)cc3c2CCc2ccccc2)c1 |
| 130 | Cc1cc(Cl)c(O)c(-c2cc3cc(C(=N)N)ccc3[nH]2)c1 |
| 100 | Cc1cc(Br)c(O)c(-c2cc3cc(C(=N)N)ccc3[nH]2)c1 |
| 0.5 | N=C(N)c1ccc2[nH]c(-c3cc(CCOP(=O)(O)O)cc(Br)c3O)c(Cc3ccccc3)c2c1 |
| 20 | Cc1cc(Br)c(O)c(-c2[nH]c3ccc(C(=N)N)cc3c2Cc2ccccc2)c1 |
| 0.5 | N=C(N)c1ccc2[nH]c(-c3cc(CCC(=O)O)cc(Br)c3O)c(Cc3ccccc3)c2c1 |
| 3 | COC(=O)Cc1cc(Br)c(O)c(-c2[nH]c3ccc(C(=N)N)cc3c2Cc2ccccc2)c1 |
| 2 | CN(C)C(=O)Cc1cc(Br)c(O)c(-c2[nH]c3ccc(C(=N)N)cc3c2Cc2ccccc2)c1 |

Molecular target: Prothrombin (Homo sapiens, UniProt P00734)
Assay: Inhibitory activity against thrombin(fIIa) in human plasma
Assay type: cell-free

| SMILES | Ki [nM] |
| --- | --- |
| O=C(O)CCc1cc(Br)c(O)c(-c2[nH]c3ccccc3c2Cc2ccccc2)c1 | 700000 |
| Cc1cc(Br)c(O)c(-c2[nH]c3ccc(C(=N)N)cc3c2CCCc2ccccc2)c1 | 6600 |
| NC(=O)c1ccc2[nH]c(-c3cc(CCC(=O)O)cc(Br)c3O)c(Cc3ccccc3)c2c1 | 78000 |
| N=C(N)c1ccc2[nH]c(-c3cc(Br)cc(CCC(=O)O)c3)c(Cc3ccccc3)c2c1 | 12000 |
| N=C(N)c1ccc2[nH]c(-c3cc(Cc4nn[nH]n4)cc(Br)c3O)c(Cc3ccccc3)c2c1 | 440 |
| N=C(N)c1ccc2[nH]c(-c3cc(CCCC(=O)O)cc(Br)c3O)c(Cc3ccccc3)c2c1 | 40 |
| COc1c(Br)cc(CCC(=O)O)cc1-c1[nH]c2ccc(C(=N)N)cc2c1Cc1ccccc1 | 2500 |
| N=C(N)c1ccc2[nH]c(-c3cc(CC(=O)O)cc(Br)c3O)c(Cc3ccccc3)c2c1 | 1000 |
| Cc1cc(-c2ccccc2)c(O)c(-c2cc3cc(C(=N)N)ccc3[nH]2)c1 | 4000 |
| N=C(N)c1ccc2[nH]c(-c3cc(CC(N)=O)cc(Br)c3O)c(Cc3ccccc3)c2c1 | 25 |
| N=C(N)c1ccc2[nH]c(-c3cc(-c4nn[nH]n4)cc(Br)c3O)c(Cc3ccccc3)c2c1 | 350 |
| Cc1cc(C)c(O)c(-c2cc3cc(C(=N)N)ccc3[nH]2)c1 | 6900 |
| Cc1ccc(O)c(-c2cc3cc(C(=N)N)ccc3[nH]2)c1 | 23000 |

Now from value to compound:

| Ki [nM] | SMILES |
| --- | --- |
| 750 | CC(C)(C(=O)O)c1cc(Br)c(O)c(-c2[nH]c3ccc(C(=N)N)cc3c2Cc2ccccc2)c1 |
| 710 | Cc1cc(Br)c(O)c(-c2[nH]c3ccc(C(=N)N)cc3c2CCc2ccccc2)c1 |
| 460 | Cc1cc(Cl)c(O)c(-c2cc3cc(C(=N)N)ccc3[nH]2)c1 |
| 360 | Cc1cc(Br)c(O)c(-c2cc3cc(C(=N)N)ccc3[nH]2)c1 |
| 330 | N=C(N)c1ccc2[nH]c(-c3cc(CCOP(=O)(O)O)cc(Br)c3O)c(Cc3ccccc3)c2c1 |
| 260 | Cc1cc(Br)c(O)c(-c2[nH]c3ccc(C(=N)N)cc3c2Cc2ccccc2)c1 |
| 120 | N=C(N)c1ccc2[nH]c(-c3cc(CCC(=O)O)cc(Br)c3O)c(Cc3ccccc3)c2c1 |
| 80 | COC(=O)Cc1cc(Br)c(O)c(-c2[nH]c3ccc(C(=N)N)cc3c2Cc2ccccc2)c1 |
| 43 | CN(C)C(=O)Cc1cc(Br)c(O)c(-c2[nH]c3ccc(C(=N)N)cc3c2Cc2ccccc2)c1 |

Molecular target: Serine protease 1 (Homo sapiens, UniProt P07477)
Assay: Inhibitory activity against trypsin in human plasma
Assay type: cell-free

Chain of Serine protease 1 (P07477 whole entry): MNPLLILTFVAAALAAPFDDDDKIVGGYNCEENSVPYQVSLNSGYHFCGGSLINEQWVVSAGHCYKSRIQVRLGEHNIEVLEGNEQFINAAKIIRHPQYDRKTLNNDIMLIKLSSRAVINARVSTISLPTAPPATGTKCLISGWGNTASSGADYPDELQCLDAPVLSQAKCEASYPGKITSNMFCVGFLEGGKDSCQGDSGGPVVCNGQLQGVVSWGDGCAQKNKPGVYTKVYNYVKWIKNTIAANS

| SMILES | Ki [nM] |
| --- | --- |
| Cc1cc(Br)c(O)c(-c2[nH]c3ccc(C(=N)N)cc3c2CCCc2ccccc2)c1 | 42000 |
| N=C(N)c1ccc2[nH]c(-c3cc(C(=O)O)cc(Br)c3O)c(Cc3ccccc3)c2c1 | 440 |
| N=C(N)c1ccc2[nH]c(-c3cc(Cc4nn[nH]n4)cc(Br)c3O)c(Cc3ccccc3)c2c1 | 840 |
| N=C(N)c1ccc2[nH]c(-c3cc(CCCC(=O)O)cc(Br)c3O)c(Cc3ccccc3)c2c1 | 610 |
| N=C(N)c1ccc2[nH]c(-c3cc(CC(=O)O)cc(Br)c3O)c(Cc3ccccc3)c2c1 | 1200 |
| Cc1cc(-c2ccccc2)c(O)c(-c2cc3cc(C(=N)N)ccc3[nH]2)c1 | 1800 |
| N=C(N)c1ccc2[nH]c(-c3cc(-c4nn[nH]n4)cc(Br)c3O)c(Cc3ccccc3)c2c1 | 1300 |
| Cc1cc(C)c(O)c(-c2cc3cc(C(=N)N)ccc3[nH]2)c1 | 5000 |
| Cc1ccc(O)c(-c2cc3cc(C(=N)N)ccc3[nH]2)c1 | 8200 |

Now from value to compound:

| Ki [nM] | SMILES |
| --- | --- |
| 1300 | CC(C)(C(=O)O)c1cc(Br)c(O)c(-c2[nH]c3ccc(C(=N)N)cc3c2Cc2ccccc2)c1 |
| 3400 | Cc1cc(Br)c(O)c(-c2[nH]c3ccc(C(=N)N)cc3c2CCc2ccccc2)c1 |
| 700 | Cc1cc(Cl)c(O)c(-c2cc3cc(C(=N)N)ccc3[nH]2)c1 |
| 640 | Cc1cc(Br)c(O)c(-c2cc3cc(C(=N)N)ccc3[nH]2)c1 |
| 3800 | N=C(N)c1ccc2[nH]c(-c3cc(CCOP(=O)(O)O)cc(Br)c3O)c(Cc3ccccc3)c2c1 |
| 2400 | Cc1cc(Br)c(O)c(-c2[nH]c3ccc(C(=N)N)cc3c2Cc2ccccc2)c1 |
| 600 | N=C(N)c1ccc2[nH]c(-c3cc(CCC(=O)O)cc(Br)c3O)c(Cc3ccccc3)c2c1 |

Molecular target: Plasminogen (Homo sapiens, UniProt P00747)
Assay: Inhibitory activity against plasmin in human plasma
Assay type: cell-free

Chain of Plasminogen (P00747 97-580 limits assumed): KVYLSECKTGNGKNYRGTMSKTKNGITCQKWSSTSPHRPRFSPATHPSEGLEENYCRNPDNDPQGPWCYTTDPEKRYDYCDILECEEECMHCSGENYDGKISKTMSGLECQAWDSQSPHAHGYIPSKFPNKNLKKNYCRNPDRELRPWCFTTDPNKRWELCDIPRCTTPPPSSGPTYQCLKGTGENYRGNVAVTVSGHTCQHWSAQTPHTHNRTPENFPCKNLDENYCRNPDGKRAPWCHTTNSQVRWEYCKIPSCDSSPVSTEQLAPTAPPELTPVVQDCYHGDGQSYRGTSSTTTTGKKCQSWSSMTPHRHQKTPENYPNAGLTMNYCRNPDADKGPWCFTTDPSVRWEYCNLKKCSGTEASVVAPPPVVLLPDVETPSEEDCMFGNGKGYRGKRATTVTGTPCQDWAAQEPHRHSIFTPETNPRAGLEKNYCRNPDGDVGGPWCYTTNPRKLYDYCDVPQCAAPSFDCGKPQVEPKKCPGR
Chain of Plasminogen (P00747 581-810 limits assumed): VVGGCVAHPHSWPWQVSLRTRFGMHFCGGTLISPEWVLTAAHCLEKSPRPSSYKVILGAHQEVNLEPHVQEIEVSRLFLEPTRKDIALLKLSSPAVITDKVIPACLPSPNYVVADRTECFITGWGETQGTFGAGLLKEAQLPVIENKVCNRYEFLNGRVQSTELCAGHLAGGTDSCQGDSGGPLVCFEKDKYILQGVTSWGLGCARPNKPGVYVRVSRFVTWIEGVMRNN

| SMILES | Ki [nM] |
| --- | --- |
| Cc1cc(Br)c(O)c(-c2[nH]c3ccc(C(=N)N)cc3c2CCCc2ccccc2)c1 | 32000 |
| N=C(N)c1ccc2[nH]c(-c3cc(C(=O)O)cc(Br)c3O)c(Cc3ccccc3)c2c1 | 1500 |
| N=C(N)c1ccc2[nH]c(-c3cc(Cc4nn[nH]n4)cc(Br)c3O)c(Cc3ccccc3)c2c1 | 2200 |
| N=C(N)c1ccc2[nH]c(-c3cc(CCCC(=O)O)cc(Br)c3O)c(Cc3ccccc3)c2c1 | 1500 |
| N=C(N)c1ccc2[nH]c(-c3cc(CC(=O)O)cc(Br)c3O)c(Cc3ccccc3)c2c1 | 1800 |
| Cc1cc(-c2ccccc2)c(O)c(-c2cc3cc(C(=N)N)ccc3[nH]2)c1 | 1500 |
| N=C(N)c1ccc2[nH]c(-c3cc(-c4nn[nH]n4)cc(Br)c3O)c(Cc3ccccc3)c2c1 | 4200 |
| Cc1cc(C)c(O)c(-c2cc3cc(C(=N)N)ccc3[nH]2)c1 | 10000 |
| Cc1ccc(O)c(-c2cc3cc(C(=N)N)ccc3[nH]2)c1 | 21000 |

Results, then the compound that gave them:

| Ki [nM] | SMILES |
| --- | --- |
| 3000 | CC(C)(C(=O)O)c1cc(Br)c(O)c(-c2[nH]c3ccc(C(=N)N)cc3c2Cc2ccccc2)c1 |
| 8800 | Cc1cc(Br)c(O)c(-c2[nH]c3ccc(C(=N)N)cc3c2CCc2ccccc2)c1 |
| 1000 | Cc1cc(Cl)c(O)c(-c2cc3cc(C(=N)N)ccc3[nH]2)c1 |
| 1200 | Cc1cc(Br)c(O)c(-c2cc3cc(C(=N)N)ccc3[nH]2)c1 |
| 1200 | N=C(N)c1ccc2[nH]c(-c3cc(CCOP(=O)(O)O)cc(Br)c3O)c(Cc3ccccc3)c2c1 |
| 4600 | Cc1cc(Br)c(O)c(-c2[nH]c3ccc(C(=N)N)cc3c2Cc2ccccc2)c1 |
| 1700 | N=C(N)c1ccc2[nH]c(-c3cc(CCC(=O)O)cc(Br)c3O)c(Cc3ccccc3)c2c1 |

Test system: not listed separately
Assay: In vitro anticoagulant effect to double the activated partial thromboplastin time in human plasma
Assay type: functional

| SMILES | 2x aPPT [µM] |
| --- | --- |
| N=C(N)c1ccc2[nH]c(-c3cc(CCC(=O)O)cc(Br)c3O)c(Cc3ccccc3)c2c1 | 0.52 |
| N=C(N)c1ccc2[nH]c(-c3cc(C(=O)O)cc(Br)c3O)c(Cc3ccccc3)c2c1 | 0.55 |
| N=C(N)c1ccc2[nH]c(-c3cc(Cc4nn[nH]n4)cc(Br)c3O)c(Cc3ccccc3)c2c1 | 0.59 |
| N=C(N)c1ccc2[nH]c(-c3cc(CCCC(=O)O)cc(Br)c3O)c(Cc3ccccc3)c2c1 | 0.75 |
| N=C(N)c1ccc2[nH]c(-c3cc(CC(=O)O)cc(Br)c3O)c(Cc3ccccc3)c2c1 | 0.38 |
| Cc1cc(Br)c(O)c(-c2[nH]c3ccc(C(=N)N)cc3c2Cc2ccccc2)c1 | 3.9 |
| CC(C)(C(=O)O)c1cc(Br)c(O)c(-c2[nH]c3ccc(C(=N)N)cc3c2Cc2ccccc2)c1 | 0.93 |
| N=C(N)c1ccc2[nH]c(-c3cc(-c4nn[nH]n4)cc(Br)c3O)c(Cc3ccccc3)c2c1 | 0.7 |
| N=C(N)c1ccc2[nH]c(-c3cc(CCOP(=O)(O)O)cc(Br)c3O)c(Cc3ccccc3)c2c1 | 0.42 |

Molecular target: Urokinase-type plasminogen activator (Homo sapiens, UniProt P00749)

| SMILES | Ki [nM] |
| --- | --- |
| Cc1cc(Br)c(O)c(-c2[nH]c3ccc(C(=N)N)cc3c2CCCc2ccccc2)c1 | 8600 |
| N=C(N)c1ccc2[nH]c(-c3cc(Cc4nn[nH]n4)cc(Br)c3O)c(Cc3ccccc3)c2c1 | 350 |
| N=C(N)c1ccc2[nH]c(-c3cc(CCCC(=O)O)cc(Br)c3O)c(Cc3ccccc3)c2c1 | 270 |
| N=C(N)c1ccc2[nH]c(-c3cc(CC(=O)O)cc(Br)c3O)c(Cc3ccccc3)c2c1 | 430 |
| Cc1cc(-c2ccccc2)c(O)c(-c2cc3cc(C(=N)N)ccc3[nH]2)c1 | 110 |
| N=C(N)c1ccc2[nH]c(-c3cc(-c4nn[nH]n4)cc(Br)c3O)c(Cc3ccccc3)c2c1 | 550 |
| Cc1cc(C)c(O)c(-c2cc3cc(C(=N)N)ccc3[nH]2)c1 | 2300 |
| Cc1ccc(O)c(-c2cc3cc(C(=N)N)ccc3[nH]2)c1 | 12400 |

The next lines start with the values.

| Ki [nM] | SMILES |
| --- | --- |
| 350 | CC(C)(C(=O)O)c1cc(Br)c(O)c(-c2[nH]c3ccc(C(=N)N)cc3c2Cc2ccccc2)c1 |
| 2300 | Cc1cc(Br)c(O)c(-c2[nH]c3ccc(C(=N)N)cc3c2CCc2ccccc2)c1 |
| 190 | Cc1cc(Cl)c(O)c(-c2cc3cc(C(=N)N)ccc3[nH]2)c1 |
| 110 | Cc1cc(Br)c(O)c(-c2cc3cc(C(=N)N)ccc3[nH]2)c1 |
| 400 | N=C(N)c1ccc2[nH]c(-c3cc(CCOP(=O)(O)O)cc(Br)c3O)c(Cc3ccccc3)c2c1 |
| 1600 | Cc1cc(Br)c(O)c(-c2[nH]c3ccc(C(=N)N)cc3c2Cc2ccccc2)c1 |
| 280 | N=C(N)c1ccc2[nH]c(-c3cc(CCC(=O)O)cc(Br)c3O)c(Cc3ccccc3)c2c1 |
